Measurements from US20230063449A1, “DRG-MDM2-5 FOR USE AS A NOVEL MOUSE DOUBLE MINUTE 2 (MDM2) INHIBITOR” (BAHCESEHIR UNIVERSITESI, priority 2020, published 2023).

Assays:
MDA-MB231 cell lines = assay: MTT cell viability assay (IC50); format: cell-based; conditions: Homo sapiens, MDA-MB-231, single dose of treatment, 10^−9 to 10^−4 M, 570 nm absorbance (FIG. 1), read-out: half-maximal inhibitory concentration (IC50)
Procedure: (§1) HCT 116 colon cancer and MDA-MB231 breast cancer cell lines are used in cell culture experiments.
Cells were treated with high-glucose DMEM medium (Biosera) supplemented with 10% FBS (Gibco) and 1× penicillin/streptomycin (Multicell). The assay was designed to contain 10,000 cells for each well of 24-well cell culture plates before being treated with inhibitors.
Compound of formula I was dissolved with DMSO as 20 mM stock. 24 hours later, the solution was diluted in DMEM with 10% FBS and final concentration of vehicle DMSO was 0.5% at maximum. Therefore, the vehicle group included 0.5% DMSO concentration in experiments. Intensive cultivation of cells causes a decrease in proliferation capacity.
The MTT cell viability assay was used to detect values of half-maximal inhibitory concentration (IC50). Different concentrations of compound of formula I ranging between 10^−9 to 10^−4 M were tested on MDA-MB231 cell lines with single dose of treatment. 570 nm absorbance values were recorded and IC50 values were calculated by dose response—inhibition curves and nonlinear regression analysis on Graphpad Prism 8 software.

[1] = tested on: HCT 116 colon cancer and MDA-MB231 breast cancer cell lines; assay: MTT cell proliferation inhibition analysis; format: cell-based; conditions: 100 μM; MTT at 12 h, 24 h, 48 h and 72 h; ANOVA, p<0.001 (FIG. 2)
Procedure: as §1
For proliferation inhibition analysis, cells were seeded in 24 well plates at 1×10^4 cells/well cells overnight without drug treatment. During the cell proliferation experiments, we performed five days of treatment in each cell line and repeated the experiments three times to check each experiment. No significant difference in cell viability was observed after the third day. Therefore, cells with different drug concentrations were treated for two days. After 48 hours, MTT was applied to the cells and incubated at 37° C. for 4 hours, formazan was solubilized with DMSO (Sigma-Aldrich, St. Louis, USA) and absorbance was measured at 570 nm.
Molecule concentration was 100 μM, the lower concentrations were not shown. Vehicle represents the groups treated with only %0.5 DMSO and Untreated represents no molecule treated group. Molecule responses were evaluated by cell viability which is obtained by spectrophotometric analysis of cells upon MTT treatment at 12 h, 24 h, 48 h and 72 h. […] Statistical significance in graphs was determined by comparing each treatment group with DMSO control using ANOVA testing and significance is considered as p<0.001 (FIG. 2).

MDM2 protein = MDM2 protein (Homo sapiens, UniProt Q00987); conditions: compared with natural p53 peptide; cited from earlier work
MDM2 protein, sequence (Q00987 whole entry, species assumed): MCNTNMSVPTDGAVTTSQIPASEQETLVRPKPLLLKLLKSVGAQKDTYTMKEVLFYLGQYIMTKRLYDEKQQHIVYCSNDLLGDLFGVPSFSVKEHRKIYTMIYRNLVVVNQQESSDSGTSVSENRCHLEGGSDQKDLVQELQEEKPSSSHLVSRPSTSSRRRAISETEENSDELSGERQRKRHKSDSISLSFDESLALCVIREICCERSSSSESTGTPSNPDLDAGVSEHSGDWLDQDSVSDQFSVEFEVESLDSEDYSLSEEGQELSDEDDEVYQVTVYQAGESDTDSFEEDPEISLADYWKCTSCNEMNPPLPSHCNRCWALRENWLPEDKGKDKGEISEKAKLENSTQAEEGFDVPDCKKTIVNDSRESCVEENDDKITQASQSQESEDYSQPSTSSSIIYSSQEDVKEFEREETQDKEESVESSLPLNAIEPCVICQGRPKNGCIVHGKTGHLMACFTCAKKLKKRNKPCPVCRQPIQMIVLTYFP

IC50 (MDA-MB231 cell lines) [µM] | Compound | cell viability (MTT) compared to vehicle and untreated groups [1] | binding affinity to MDM2 protein relative to a natural p53 peptide (MDM2 protein) [fold]
98 | O=C(CSCc1ccccc1)NC(CC1CNc2ccccc21)C(=O)O (stereo not drawn) [compound of formula I] | statistically significant difference compared to vehicle and untreated groups | 
 | MI-319 |  | 500
